≈ marks a conversion by molar mass, not a printed value.
Experiments:
[1] = test system: Adriamycin-resistant mouse leukemic cells P388/ADR; experiment: In vitro tumor cell proliferation inhibiting test (Adriamycin-resistant mouse leukemic cells P388/ADR); format: cell-based; details: 48 h, 2×10^5, RPMI 1640 with 10% bovine fetal serum, 2 days, read-out: 50% proliferation inhibitory concentration: IC50
Procedure: 2×10^5 Adriamycin-resistant mouse leukemic cells P388/ADR are suspended in a RPMI 1640 culture medium containing 10% of a bovine fetal serum, and cultured for 2 days in the presence of a test compound (the test compound is dissolved in dimethyl sulfoxide such that the concentration becomes 1 mg/ml, and this is diluted with a phosphate buffer solution). An influence on cell proliferation is investigated, and 50% proliferation inhibitory concentration: IC50 value (μg/ml) is determined.

[2] = test system: Sarcoma 180 ascites tumor; experiment: In vivo test on Sarcoma 180 ascites tumor transplanted mice; set-up: species or system mouse (ddY male); details: once a day over 7 days; for Average number of survival days (mean ± SD): 6 mice per group; for Cured example: groups of 6 mice
Procedure: 1×10^6 Sarcoma 180 cells are transplanted in an abdominal cavity of each of 6-week old ddY male mice. Over 7 days after the first day of transplantation of tumor cells in groups each consisting of 6 mice, the test compound (which is dissolved in propyplene glycol and diluted with a phosphate buffer solution such that the final concentration of propylene glycol becomes 20% or less) is administered in the abdominal cavity once a day, and an average number of survival days and percent prolongation* are measured. [formula]

[3] = test system: Sarcoma 180 solid tumor; experiment: In vivo test on Sarcoma 180 solid tumor transplanted mice; set-up: species or system mouse (ddY female); details: for Average tumor weight (mean ± SD, g): once a day over 10 days from 6th day, tumor taken out 30 days after transplantation; for Percent inhibition: tumor weight, 30 days after transplantation
Procedure: 2×10^6 Sarcoma 180 cells are transplanted subcutaneously in the back of each of 6-week old ddY female mice. Over 10 days from the 6th day after the tumor transplantation in groups each consisting of 6 mices, the test compound (which is dissolved in propylene glycol and diluted with a phosphate buffer solution such that the final concentration of propylene glycol becomes 20% or less) is continuously administered in the abdominal cavity once a day. Thirty days after the tumor transplantation, the tumor is taken out. Its weight is measured, and an average tumor weight and percent inhibition* are measured. [formula]

[4] = Acute toxicity test; set-up: species or system mouse (ddY male); details: mouse, in vivo, mortality for 1 week, Litchfield-Wilcoxon method
Procedure: The test compound is administered to each 5-week old ddY male mouse, and mortality is observed for 1 week. A 50% lethal dose (LD50) is calculated from the number of mice died in each group by a Litchfield-Wilcoxon method. The test compound (compound (a)) is suspended in 10% propylene glycol. Ten dilution gradients are prepared from the maximum concentration 80 mg/kg at a ratio of 1.2, and the test is carried out.

Compound: COc1cc2c(c(OC)c1OC)-c1ccc(OC)c(=O)cc1C(NC(=O)[C@@H]1COC(C)(C)O1)CC2 (stereo partly shown) [Compound 1a, Deacetylcolchicine-glyceric Acid Acetonideamide]
- IC50 [1]: 0.036 µg/mL (≈ 0.0741 µM)
- Percent prolongation ([2]; 0.31 mg/kg i.p.): 188%
- Average number of survival days (mean ± SD) ([2]; 0.31 mg/kg i.p.): 36.0 ± 8.0 days
- Percent prolongation ([2]; 0.63 mg/kg i.p.): 281%
- Average number of survival days (mean ± SD) ([2]; 0.63 mg/kg i.p.): 47.7 ± 11.1 days
- Cured example ([2]; 0.63 mg/kg i.p.): 1
- Percent prolongation ([2]; 1.25 mg/kg i.p.): 277%
- Average number of survival days (mean ± SD) ([2]; 1.25 mg/kg i.p.): 47.2 ± 11.5 days
- Cured example ([2]; 1.25 mg/kg i.p.): 2
- Percent prolongation ([2]; 2.5 mg/kg i.p.): 333%
- Average number of survival days (mean ± SD) ([2]; 2.5 mg/kg i.p.): 54.2 ± 11.6 days
- Cured example ([2]; 2.5 mg/kg i.p.): 4
- Average tumor weight (mean ± SD, g) ([3]; 0.625 μg/kg i.p.): 0.71 ± 0.38 g
- Percent inhibition ([3]; 0.625 μg/kg i.p.): 49.6%
- Average tumor weight (mean ± SD, g) ([3]; 1.25 μg/kg i.p.): 0.88 ± 0.78 g
- Percent inhibition ([3]; 1.25 μg/kg i.p.): 47.6%
- Average tumor weight (mean ± SD, g) ([3]; 2.5 μg/kg i.p.): 0.63 ± 0.51 g
- Percent inhibition ([3]; 2.5 μg/kg i.p.): 55.3%
- Average tumor weight (mean ± SD, g) ([3]; 5.0 μg/kg i.p.): 0.60 ± 0.52 g
- Percent inhibition ([3]; 5.0 μg/kg i.p.): 57.4%
- LD50 at 168 h ([4]; ip, intraperitoneal): 42 mg/kg
- LD50 at 168 h ([4]; intravenous): 38 mg/kg

Compound: COc1cc2c(c(OC)c1OC)-c1ccc(OC)c(=O)cc1C(NC(=O)[C@H]1COC(C)(C)O1)CC2 (stereo partly shown) [Compound 1b, Deacetylcolchicine-glyceric Acid Acetonideamide]
- IC50 [1]: 0.066 µg/mL (≈ 0.136 µM)
- Percent prolongation ([2]; 1.25 mg/kg i.p.): 240%
- Average number of survival days (mean ± SD) ([2]; 1.25 mg/kg i.p.): 42.5 ± 15.4 days
- Cured example ([2]; 1.25 mg/kg i.p.): 1
- Percent prolongation ([2]; 2.5 mg/kg i.p.): 356%
- Average number of survival days (mean ± SD) ([2]; 2.5 mg/kg i.p.): 57.0 ± 7.3 days
- Cured example ([2]; 2.5 mg/kg i.p.): 5
- Percent prolongation ([2]; 5 mg/kg i.p.): 356%
- Average number of survival days (mean ± SD) ([2]; 5 mg/kg i.p.): 57.0 ± 5.3 days
- Cured example ([2]; 5 mg/kg i.p.): 4

Compound: COc1cc2c(c(OC)c1OC)-c1ccc(OC)c(=O)cc1C(NC(=O)[C@H]1O[C@H](OC(C)=O)[C@H](O)[C@@H](O)[C@@H]1OC(C)=O)CC2 (stereo partly shown) [Compound 4, Deacetylcolchicine-glucuronic acid diacetateamide]
- IC50 [1]: 0.034 µg/mL

Compound: COc1cc2c(c(OC)c1OC)-c1ccc(OC)c(=O)cc1C(NC(=O)[C@H]1O[C@H](O)[C@H](O)[C@@H](O)[C@@H]1O)CC2 (stereo partly shown) [Compound 5, N-(5,6,7,9-tetrahydro-1,2,3,10-tetramethoxy-9-oxobenzo[a]heptalen-7-yl)glucuroneamide]
- IC50 [1]: 0.037 µg/mL (≈ 0.0693 µM)

Source: patent US5220002A, “Deacetylcolchicine derivatives” (Ohgen Research Laboratories, Ltd., priority 1990, dated 1993)
